{
  "source": "ChEMBL document CHEMBL3885881",
  "about": "“DrugMatrix”",
  "organism": "Rattus norvegicus",
  "assay": "DrugMatrix - Regimen: Daily Repeat",
  "assay_type": "toxicity, organism-based, Sprague-Dawley",
  "parameters": "regimen Daily Repeat, gender Male, age 6-8 weeks",
  "details": "in vivo, po, 1100 mg/kg, route oral GAVAGE, dose level High, vehicle .5 % CMC; for ABSOLUTE BASOPHIL / ABSOLUTE EOSINOPHIL / ABSOLUTE LYMPHOCYTE / ABSOLUTE MONOCYTE / ABSOLUTE SEGMENTED NEUTROPHIL / BASOPHIL / EOSINOPHIL / ERYTHROCYTE COUNT / HEMATOCRIT / HEMOGLOBIN / LEUKOCYTE COUNT / LYMPHOCYTE / MEAN CORPUSCULAR HEMOGLOBIN / MEAN CORPUSCULAR HEMOGLOBIN CONCENTRATION / MEAN CORPUSCULAR VOLUME / MONOCYTE / NEUTROPHIL / NUCLEATED RED BLOOD CELLS / PLATELET COUNT: tissue Blood; for ALANINE AMINOTRANSFERASE / ALBUMIN / ALKALINE PHOSPHATASE / ASPARTATE AMINOTRANSFERASE / BLOOD UREA NITROGEN / CARBON DIOXIDE / CHLORIDE / CHOLESTEROL / CREATINE PHOSPHOKINASE / CREATININE / GLUCOSE / LACTATE DEHYDROGENASE / LIPASE / PHOSPHORUS / POTASSIUM / SODIUM / TOTAL BILIRUBIN / TOTAL PROTEIN / URIC ACID: tissue Plasma",
  "data": [
    {"smiles": "COc1ccc(/C=C/C(=O)Nc2ccccc2C(=O)O)cc1OC", "values": [
      {"measurement": "ABSOLUTE BASOPHIL", "setting": "72 h, time 3 day", "value": 0, "unit": "CELLS/uL"},
      {"measurement": "ABSOLUTE EOSINOPHIL", "setting": "72 h, time 3 day", "value": 138, "unit": "CELLS/uL"},
      {"measurement": "ABSOLUTE LYMPHOCYTE", "setting": "72 h, time 3 day", "value": 17593, "unit": "CELLS/uL"},
      {"measurement": "ABSOLUTE MONOCYTE", "setting": "72 h, time 3 day", "value": 218.33, "unit": "CELLS/uL"},
      {"measurement": "ABSOLUTE SEGMENTED NEUTROPHIL", "setting": "72 h, time 3 day", "value": 4950.67, "unit": "CELLS/uL"},
      {"measurement": "BASOPHIL", "setting": "72 h, time 3 day", "value": 0, "unit": "%"},
      {"measurement": "EOSINOPHIL", "setting": "72 h, time 3 day", "value": 0.67, "unit": "%"},
      {"measurement": "ERYTHROCYTE COUNT", "setting": "72 h, time 3 day", "value": 5.25, "unit": "x10E6/uL"},
      {"measurement": "HEMATOCRIT", "setting": "72 h, time 3 day", "value": 33.23, "unit": "%"},
      {"measurement": "HEMOGLOBIN", "setting": "72 h, time 3 day", "value": 12.93, "unit": "G/DL"},
      {"measurement": "LEUKOCYTE COUNT", "setting": "72 h, time 3 day", "value": 22.9, "unit": "x10E3/uL"},
      {"measurement": "LYMPHOCYTE", "setting": "72 h, time 3 day", "value": 77, "unit": "%"},
      {"measurement": "MEAN CORPUSCULAR HEMOGLOBIN", "setting": "72 h, time 3 day", "value": 24.77, "unit": "pg"},
      {"measurement": "MEAN CORPUSCULAR HEMOGLOBIN CONCENTRATION", "setting": "72 h, time 3 day", "value": 38.97, "unit": "G/DL"},
      {"measurement": "MEAN CORPUSCULAR VOLUME", "setting": "72 h, time 3 day", "value": 63.5, "unit": "fL"},
      {"measurement": "MONOCYTE", "setting": "72 h, time 3 day", "value": 1, "unit": "%"},
      {"measurement": "NEUTROPHIL", "setting": "72 h, time 3 day", "value": 21.33, "unit": "%"},
      {"measurement": "NUCLEATED RED BLOOD CELLS", "setting": "72 h, time 3 day", "value": "0 /100WBC"},
      {"measurement": "PLATELET COUNT", "setting": "72 h, time 3 day", "value": 1488, "unit": "x10E3/uL"},
      {"measurement": "ALANINE AMINOTRANSFERASE", "setting": "72 h, time 3 day", "value": 95, "unit": "u/L"},
      {"measurement": "ALBUMIN", "setting": "72 h, time 3 day", "value": 4.4, "unit": "G/DL"},
      {"measurement": "ALKALINE PHOSPHATASE", "setting": "72 h, time 3 day", "value": 368, "unit": "u/L"},
      {"measurement": "ASPARTATE AMINOTRANSFERASE", "setting": "72 h, time 3 day", "value": 112.67, "unit": "u/L"},
      {"measurement": "BLOOD UREA NITROGEN", "setting": "72 h, time 3 day", "value": 18.33, "unit": "mg/dL"},
      {"measurement": "CARBON DIOXIDE", "setting": "72 h, time 3 day", "value": 19.33, "unit": "mmol/L"},
      {"measurement": "CHLORIDE", "setting": "72 h, time 3 day", "value": 104, "unit": "MEQ/L"},
      {"measurement": "CHOLESTEROL", "setting": "72 h, time 3 day", "value": 47.33, "unit": "mg/dL"},
      {"measurement": "CREATINE PHOSPHOKINASE", "setting": "72 h, time 3 day", "value": 547, "unit": "u/L"},
      {"measurement": "CREATININE", "setting": "72 h, time 3 day", "value": 0.11, "unit": "mg/dL"},
      {"measurement": "GLUCOSE", "setting": "72 h, time 3 day", "value": 149.67, "unit": "mg/dL"},
      {"measurement": "LACTATE DEHYDROGENASE", "setting": "72 h, time 3 day", "value": 794, "unit": "u/L"},
      {"measurement": "LIPASE", "setting": "72 h, time 3 day", "value": 10, "unit": "u/L"},
      {"measurement": "PHOSPHORUS", "setting": "72 h, time 3 day", "value": 12, "unit": "mg/dL"},
      {"measurement": "POTASSIUM", "setting": "72 h, time 3 day", "value": 5.56, "unit": "MEQ/L"},
      {"measurement": "SODIUM", "setting": "72 h, time 3 day", "value": 142.2, "unit": "MEQ/L"},
      {"measurement": "TOTAL BILIRUBIN", "setting": "72 h, time 3 day", "value": 0.27, "unit": "mg/dL"},
      {"measurement": "TOTAL PROTEIN", "setting": "72 h, time 3 day", "value": 5.77, "unit": "G/DL"},
      {"measurement": "URIC ACID", "setting": "72 h, time 3 day", "value": 1.67, "unit": "mg/dL"},
      {"measurement": "ABSOLUTE BASOPHIL", "setting": "120 h, time 5 day", "value": 0, "unit": "CELLS/uL"},
      {"measurement": "ABSOLUTE EOSINOPHIL", "setting": "120 h, time 5 day", "value": 0, "unit": "CELLS/uL"},
      {"measurement": "ABSOLUTE LYMPHOCYTE", "setting": "120 h, time 5 day", "value": 8740, "unit": "CELLS/uL"},
      {"measurement": "ABSOLUTE MONOCYTE", "setting": "120 h, time 5 day", "value": 0, "unit": "CELLS/uL"},
      {"measurement": "ABSOLUTE SEGMENTED NEUTROPHIL", "setting": "120 h, time 5 day", "value": 2760, "unit": "CELLS/uL"},
      {"measurement": "BASOPHIL", "setting": "120 h, time 5 day", "value": 0, "unit": "%"},
      {"measurement": "EOSINOPHIL", "setting": "120 h, time 5 day", "value": 0, "unit": "%"},
      {"measurement": "ERYTHROCYTE COUNT", "setting": "120 h, time 5 day", "value": 5.33, "unit": "x10E6/uL"},
      {"measurement": "HEMATOCRIT", "setting": "120 h, time 5 day", "value": 31.3, "unit": "%"},
      {"measurement": "HEMOGLOBIN", "setting": "120 h, time 5 day", "value": 12.1, "unit": "G/DL"},
      {"measurement": "LEUKOCYTE COUNT", "setting": "120 h, time 5 day", "value": 11.5, "unit": "x10E3/uL"},
      {"measurement": "LYMPHOCYTE", "setting": "120 h, time 5 day", "value": 76, "unit": "%"},
      {"measurement": "MEAN CORPUSCULAR HEMOGLOBIN", "setting": "120 h, time 5 day", "value": 22.7, "unit": "pg"},
      {"measurement": "MEAN CORPUSCULAR HEMOGLOBIN CONCENTRATION", "setting": "120 h, time 5 day", "value": 38.7, "unit": "G/DL"},
      {"measurement": "MEAN CORPUSCULAR VOLUME", "setting": "120 h, time 5 day", "value": 58.8, "unit": "fL"},
      {"measurement": "MONOCYTE", "setting": "120 h, time 5 day", "value": 0, "unit": "%"},
      {"measurement": "NEUTROPHIL", "setting": "120 h, time 5 day", "value": 24, "unit": "%"},
      {"measurement": "NUCLEATED RED BLOOD CELLS", "setting": "120 h, time 5 day", "value": "2 /100WBC"},
      {"measurement": "PLATELET COUNT", "setting": "120 h, time 5 day", "value": 1853, "unit": "x10E3/uL"},
      {"measurement": "ALANINE AMINOTRANSFERASE", "setting": "120 h, time 5 day", "value": 113, "unit": "u/L"},
      {"measurement": "ALBUMIN", "setting": "120 h, time 5 day", "value": 4.4, "unit": "G/DL"},
      {"measurement": "ALKALINE PHOSPHATASE", "setting": "120 h, time 5 day", "value": 238, "unit": "u/L"},
      {"measurement": "ASPARTATE AMINOTRANSFERASE", "setting": "120 h, time 5 day", "value": 86, "unit": "u/L"},
      {"measurement": "BLOOD UREA NITROGEN", "setting": "120 h, time 5 day", "value": 17, "unit": "mg/dL"},
      {"measurement": "CARBON DIOXIDE", "setting": "120 h, time 5 day", "value": 22, "unit": "mmol/L"},
      {"measurement": "CHLORIDE", "setting": "120 h, time 5 day", "value": 102, "unit": "MEQ/L"},
      {"measurement": "CHOLESTEROL", "setting": "120 h, time 5 day", "value": 58, "unit": "mg/dL"},
      {"measurement": "CREATINE PHOSPHOKINASE", "setting": "120 h, time 5 day", "value": 287, "unit": "u/L"},
      {"measurement": "CREATININE", "setting": "120 h, time 5 day", "value": 0.1, "unit": "mg/dL"},
      {"measurement": "GLUCOSE", "setting": "120 h, time 5 day", "value": 153, "unit": "mg/dL"},
      {"measurement": "LACTATE DEHYDROGENASE", "setting": "120 h, time 5 day", "value": 188, "unit": "u/L"},
      {"measurement": "LIPASE", "setting": "120 h, time 5 day", "value": 9, "unit": "u/L"},
      {"measurement": "PHOSPHORUS", "setting": "120 h, time 5 day", "value": 14.8, "unit": "mg/dL"},
      {"measurement": "POTASSIUM", "setting": "120 h, time 5 day", "value": 5.92, "unit": "MEQ/L"},
      {"measurement": "SODIUM", "setting": "120 h, time 5 day", "value": 141.9, "unit": "MEQ/L"},
      {"measurement": "TOTAL BILIRUBIN", "setting": "120 h, time 5 day", "value": 0.2, "unit": "mg/dL"},
      {"measurement": "TOTAL PROTEIN", "setting": "120 h, time 5 day", "value": 5.6, "unit": "G/DL"},
      {"measurement": "URIC ACID", "setting": "120 h, time 5 day", "value": 2.1, "unit": "mg/dL"}
    ]}
  ]
}
